Test results as given in patent publication US8445680B2, “Tetrahydrothieno pyridines” (Merck Sharp & Dohme Corp., priority 2008, dated 2013).
Where a name gives a salt, the structure may show the parent alone.

target: T1, FLAG-tagged full length PHD2 (Homo sapiens, UniProt Q9GZT9); test: PHD2 inhibition assay (time resolved fluorescence, HIF-1α peptide hydroxylation, VHL detection); assay type: biochemical; settings: 0.2 μM 2-oxoglutarate, 0.5 μM HIF-1α peptide, 2 hr at room temperature; read-out: PHD2 Activity (PHD2 binding activity expressed as IC50)
T1 construct: FLAG-tagged full length PHD2; FLAG; made in house; host or cells: baculovirus-infected Sf9 cells
Procedure: To each well of a 96-well plate was added 1 μL of test compound in DMSO and 20 μl of assay buffer (50 mM Tris pH 7.4/0.01% Tween-20/0.1 mg/ml bovine serum albumin/10 μM ferrous sulfate/1 mM sodium ascorbate/20 μg/ml catalase) containing 0.15 μg/ml FLAG-tagged full length PHD2 expressed in and purified from baculovirus-infected Sf9 cells. After a 30 min preincubation at room temperature, the enzymatic reactions were initiated by the addition of 4 μL of substrates (final concentrations of 0.2 μM 2-oxoglutarate and 0.5 μM HIF-1α peptide biotinyl-[…]).

T1 sequence (Q9GZT9 whole entry): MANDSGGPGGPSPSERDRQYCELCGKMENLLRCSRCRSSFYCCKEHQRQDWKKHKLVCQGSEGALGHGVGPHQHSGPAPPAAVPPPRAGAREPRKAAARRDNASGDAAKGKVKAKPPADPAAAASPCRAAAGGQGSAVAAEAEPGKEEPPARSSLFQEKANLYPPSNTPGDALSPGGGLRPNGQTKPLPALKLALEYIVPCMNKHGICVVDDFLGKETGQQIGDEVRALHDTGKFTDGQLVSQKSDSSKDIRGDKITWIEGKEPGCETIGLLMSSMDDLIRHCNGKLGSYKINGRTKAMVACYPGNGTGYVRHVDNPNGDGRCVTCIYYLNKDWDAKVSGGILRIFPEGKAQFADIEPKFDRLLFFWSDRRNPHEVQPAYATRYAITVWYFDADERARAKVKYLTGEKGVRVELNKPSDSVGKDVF

`O=C(O)CNC(=O)c1c(O)c2c(n(Cc3ccc(-c4ccn[nH]4)cc3)c1=O)CSC2` [Example 27, N-({4-hydroxy-2-oxo-1-[4-(1H-pyrazol-5-yl)benzyl]-1,2,5,7-tetrahydrothieno[3,4-b]pyridin-3-yl}carbonyl)glycine] and `O=C(O)CNC(=O)c1c(O)c2c(n(Cc3ccc(-c4cccs4)cc3)c1=O)CSC2` [Example 35, N-({4-hydroxy-2-oxo-1-[4-(2-thienyl)benzyl]-1,2,5,7-tetrahydrothieno[3,4-b]pyridin-3-yl}carbonyl)glycine] cannot be ordered by IC50: ≤ 10 nM for the first, ≤ 10 nM for the second.

`CC(=O)c1ccc(-c2ccc(Cn3c4c(c(O)c(C(=O)NCC(=O)O)c3=O)CSC4)cc2)cc1` [Example 28, N-({1-[(4′-acetylbiphenyl-4-yl)methyl]-4-hydroxy-2-oxo-1,2,5,7-tetrahydrothieno[3,4-b]pyridin-3-yl}carbonyl)glycine] and `O=C(O)CNC(=O)c1c(O)c2c(n(Cc3ccc(-c4ccc(Cl)cc4)cc3)c1=O)CSC2` [Example 30, N-({1-[(4′-chlorobiphenyl-4-yl)methyl]-4-hydroxy-2-oxo-1,2,5,7-tetrahydrothieno[3,4-b]pyridin-3-yl}carbonyl)glycine] cannot be ordered by IC50: ≤ 10 nM for the first, ≤ 10 nM for the second.

`O=C(O)CNC(=O)c1c(O)c2c(n(Cc3ccc(-c4ccccc4)cc3)c1=O)CSC2` [Example 29, N-{[1-(biphenyl-4-ylmethyl)-4-hydroxy-2-oxo-1,2,5,7-tetrahydrothieno[3,4-b]pyridin-3-yl]carbonyl}glycine] and `N#Cc1cccc(-c2ccc(Cn3c4c(c(O)c(C(=O)NCC(=O)O)c3=O)CSC4)cc2)c1` [Example 46, N-({1-[(3′-cyanobiphenyl-4-yl)methyl]-4-hydroxy-2-oxo-1,2,5,7-tetrahydrothieno[3,4-b]pyridin-3-yl}carbonyl)glycine] cannot be ordered by IC50: ≤ 10 nM for the first, ≤ 10 nM for the second.

`Cc1n[nH]c(C)c1-c1ccc(Cn2c3c(c(O)c(C(=O)NCC(=O)O)c2=O)CSC3)cc1` [Example 31, N-({1-[4-(3,5-dimethyl-1H-pyrazol-4-yl)benzyl]-4-hydroxy-2-oxo-1,2,5,7-tetrahydrothieno[3,4-b]pyridin-3-yl}carbonyl)glycine] and `O=C(O)CNC(=O)c1c(O)c2c(n(Cc3ccc(-c4ccc(F)cc4)nc3)c1=O)CSC2` [Example 40, N-[(1-{[6-(4-fluorophenyl)pyridinium-3-yl]methyl}-4-hydroxy-2-oxo-1,2,5,7-tetrahydrothieno[3,4-b]pyridin-3-yl)carbonyl]glycine trifluoroacetate] cannot be ordered by IC50: ≤ 10 nM for the first, ≤ 10 nM for the second.

`O=C(O)CNC(=O)c1c(O)c2c(n(Cc3ccc(Oc4ccc(F)cc4)cc3)c1=O)CSC2` [Example 32, N-({l-[4-(4-fluorophenoxy)benzyl]-4-hydroxy-2-oxo-1,2,5,7-tetrahydrothieno[3,4-b]pyridin-3-yl}carbonyl)glycine] and `O=C(O)CNC(=O)c1c(O)c2c(n(Cc3ccc(Oc4ccc(Cl)cc4)cc3)c1=O)CSC2` [Example 33, N-({1-[4-(4-chlorophenoxy)benzyl]-4-hydroxy-2-oxo-1,2,5,7-tetrahydrothieno[3,4-b]pyridin-3-yl}carbonyl)glycine] cannot be ordered by IC50: ≤ 10 nM for the first, ≤ 10 nM for the second.

`CCOc1ccc(-c2ccc(Cn3c4c(c(O)c(C(=O)NCC(=O)O)c3=O)CSC4)cc2)cc1` [Example 34, N-({1-[(4′-ethoxybiphenyl-4-yl)methyl]-4-hydroxy-2-oxo-1,2,5,7-tetrahydrothieno[3,4-b]pyridin-3-yl}carbonyl)glycine] and `O=C(O)CNC(=O)c1c(O)c2c(n(Cc3ccc(-c4ccc(OC(F)(F)F)cc4)cc3)c1=O)CSC2` [Example 36, N-[(4-hydroxy-2-oxo-1-{[4′-(trifluoromethoxy)biphenyl-4-yl]methyl}-1,2,5,7-tetrahydrothieno[3,4-b]pyridin-3-yl)carbonyl]glycine] cannot be ordered by IC50: ≤ 10 nM for the first, ≤ 10 nM for the second.

`CCN(CC)C(=O)c1ccccc1-c1ccc(Cn2c3c(c(O)c(C(=O)NCC(=O)O)c2=O)CSC3)cc1` [Example 37, N-{[1-({2′-[(diethylamino)carbonyl]biphenyl-4-yl}methyl)-4-hydroxy-2-oxo-1,2,5,7-tetrahydrothieno[3,4-b]pyridin-3-yl]carbonyl}glycine] and `CCc1ccccc1-c1ccc(Cn2c3c(c(O)c(C(=O)NCC(=O)O)c2=O)CSC3)cn1` [Example 50, N-[(l-{[6-(2-ethylphenyl)pyridinium-3-yl]methyl}-4-hydroxy-2-oxo-1,2,5,7-tetrahydrothieno[3,4-b]pyridin-3-yl)carbonyl]glycine trifluoroacetate] cannot be ordered by IC50: ≤ 10 nM for the first, ≤ 10 nM for the second.

`O=C(O)CNC(=O)c1c(O)c2c(n(-c3ccc(-c4ccc(OC(F)(F)F)cc4)cc3)c1=O)CSC2` [Example 38, N-({4-hydroxy-2-oxo-1-[4′-(trifluoromethoxy)biphenyl-4-yl]-1,2,5,7-tetrahydrothieno[3,4-b]pyridin-3-yl}carbonyl)glycine] and `O=C(O)CNC(=O)c1c(O)c2c(n(Cc3ccc(-c4cccc(OC(F)(F)F)c4)nc3)c1=O)CSC2` [Example 49, N-{[4-hydroxy-2-oxo-1-({6-[3-(trifluoromethoxy)phenyl]pyridinium-3-yl}methyl)-1,2,5,7-tetrahydrothieno[3,4-b]pyridin-3-yl]carbonyl}glycine trifluoroacetate] cannot be ordered by IC50: 10 to 100 nM for the first, ≤ 10 nM for the second.

`O=C(O)CNC(=O)c1c(O)c2c(n(Cc3ccc(-c4cccc(Cl)c4)nc3)c1=O)CSC2` [Example 39, N-[(l-{[6-(3-chlorophenyl)pyridinium-3-yl]methyl}-4-hydroxy-2-oxo-1,2,5,7-tetrahydrothieno[3,4-b]pyridin-3-yl)carbonyl]glycine trifluoroacetate] and `O=C(O)CNC(=O)c1c(O)c2c(n(Cc3ccc(-c4ccccc4Cl)nc3)c1=O)CSC2` [Example 41, N-[(l-{[6-(2-chlorophenyl)pyridinium-3-yl]methyl}-4-hydroxy-2-oxo-1,2,5,7-tetrahydrothieno[3,4-b]pyridin-3-yl)carbonyl]glycine trifluoroacetate] cannot be ordered by IC50: ≤ 10 nM for the first, ≤ 10 nM for the second.

`O=C(O)CNC(=O)c1c(O)c2c(n(Cc3ccc(-c4ccccc4F)nc3)c1=O)CSC2` [Example 43, N-[(l-{[6-(2-fluorophenyl)pyridin-3-yl]methyl}-4-hydroxy-2-oxo-1,2,5,7-tetrahydrothieno[3,4-b]pyridin-3-yl)carbonyl]glycine] and `Cc1ccccc1-c1ccc(Cn2c3c(c(O)c(C(=O)NCC(=O)O)c2=O)CSC3)cn1` [Example 48, N-[(4-hydroxy-1-{[6-(2-methylphenyl)pyridinium-3-yl-methyl}-2-oxo-1,2,5,7-tetrahydrothieno[3,4-b]pyridin-3-yl)carbonyl]glycine trifluoroacetate] cannot be ordered by IC50: ≤ 10 nM for the first, ≤ 10 nM for the second.

`O=C(O)CNC(=O)c1c(O)c2c(n(Cc3ccc(-c4ccc(C(F)(F)F)cc4)nc3)c1=O)CSC2` [Example 44, N-{[4-hydroxy-2-oxo-1-({6-[4-(trifluoromethyl)phenyl]pyridinium-3-yl}methyl)-1,2,5,7-tetrahydrothieno[3,4-b]pyridin-3-yl]caxbonyl}glycine trifluoroacetate] and `O=C(O)CNC(=O)c1c(O)c2c(n(Cc3ccc(-c4ccccc4C(F)(F)F)nc3)c1=O)CSC2` [Example 45, N-{[4-hydroxy-2-oxo-1-({6-[2-(trifluoromethyl)phenyl]pyridinium-3-yl}methyl)-1,2,5,7-tetrahydrothieno[3,4-b]pyridin-3-yl]carbonyl}glycine trifluoroacetate] cannot be ordered by IC50: ≤ 10 nM for the first, ≤ 10 nM for the second.

`CSc1ccccc1-c1ccc(Cn2c3c(c(O)c(C(=O)NCC(=O)O)c2=O)CSC3)cn1` [Example 47, N-{[4-hydroxy-1-({6-[2-(methylthio)phenyl]pyridinium-3-yl}methyl)-2-oxo-1,2,5,7-tetrahydrothieno[3,4-b]pyridin-3-yl]carbonyl}glycine trifluoroacetate] and `CSc1ccccc1-c1cnc(Cn2c3c(c(O)c(C(=O)NCC(=O)O)c2=O)CSC3)cn1` [Example 55, N-{[4-hydroxy-1-({5-[2-(methylthio)phenyl]pyrazin-2-yl}methyl)-2-oxo-1,2,5,7-tetrahydrothieno[3,4-b]pyridin-3-yl]carbonyl}glycine] cannot be ordered by IC50: ≤ 10 nM for the first, ≤ 10 nM for the second.

`O=C(O)CNC(=O)c1c(O)c2c(n(Cc3ccc(-c4cc(F)ccc4F)nc3)c1=O)CSC2` [Example 51, N-[(l-{[6-(2,5-difluorophenyl)pyridinium-3-yl]methyl}-4-hydroxy-2-oxo-1,2,5,7-tetrahydrothieno[3,4-6]pyridin-3-yl)carbonyl]glycine trifluoroacetate] and `O=C(O)CNC(=O)c1c(O)c2c(n(Cc3cnc(-c4cc(F)ccc4F)cn3)c1=O)CSC2` [Example 56, N-[(l-{[5-(2,5-difluorophenyl)pyrazin-2-yl]methyl}-4-hydroxy-2-oxo-1,2,5,7-tetrahydrothieno[3,4-b]pyridin-3-yl)carbonyl]glycine] cannot be ordered by IC50: ≤ 10 nM for the first, ≤ 10 nM for the second.

`O=C(O)CNC(=O)c1c(O)c2c(n(Cc3ccc(-c4cccc5ncccc45)cc3)c1=O)CSC2` [Example 52, N-{[4-hydroxy-2-oxo-1-(4-quinolinium-5-ylbenzyl)-1,2,5,7-tetrahydrothieno[3,4-b]pyridin-3-yl]carbonyl}glycine chloride] and `O=C(O)CNC(=O)c1c(O)c2c(n(Cc3cnc(-c4ccccc4Cl)cn3)c1=O)CSC2` [Example 53, N-[(1-{[-5-(2-chlorophenyl)pyrazin-2-yl]methyl}-4-hydroxy-2-oxo-1,2,5,7-tetrahydrothieno[3,4-b]pyridin-3-yl)carbonyl]glycine] cannot be ordered by IC50: ≤ 10 nM for the first, ≤ 10 nM for the second.

In the case of `Cc1ccccc1-c1cnc(Cn2c3c(c(O)c(C(=O)NCC(=O)O)c2=O)CSC3)cn1` [Example 54, N-[(4-hydroxy-1-{[5-(2-methylphenyl)pyrazin-2-yl]methyl}-2-oxo-1,2,5,7-tetrahydrothieno[3,4-b]pyridin-3-yl)carbonyl]glycine], the IC50 is reported as ≤ 10 nM.
